Earlier results, collected in PMC11966747, “Next Generation Risk Assessment of Acute Neurotoxicity from Organophosphate Exposures Using the In Vitro–In Silico Derived Dietary Comparator Ratio” (Environmental Science & Technology, 2025).
Like-named read-outs stand apart in the source and are kept apart here.

Target: erythrocyte AChE (Homo sapiens, UniProt P22303)
Details: cited from earlier work; for reported or expected adverse health outcome: human, ref Table S2
[1] = 1714 mg/kg BW (120 g) acute oral, 13 males and 2 females, ref Moon et al. 2015

erythrocyte AChE, sequence (P22303 32-617 isoform P22303-2 limits assumed): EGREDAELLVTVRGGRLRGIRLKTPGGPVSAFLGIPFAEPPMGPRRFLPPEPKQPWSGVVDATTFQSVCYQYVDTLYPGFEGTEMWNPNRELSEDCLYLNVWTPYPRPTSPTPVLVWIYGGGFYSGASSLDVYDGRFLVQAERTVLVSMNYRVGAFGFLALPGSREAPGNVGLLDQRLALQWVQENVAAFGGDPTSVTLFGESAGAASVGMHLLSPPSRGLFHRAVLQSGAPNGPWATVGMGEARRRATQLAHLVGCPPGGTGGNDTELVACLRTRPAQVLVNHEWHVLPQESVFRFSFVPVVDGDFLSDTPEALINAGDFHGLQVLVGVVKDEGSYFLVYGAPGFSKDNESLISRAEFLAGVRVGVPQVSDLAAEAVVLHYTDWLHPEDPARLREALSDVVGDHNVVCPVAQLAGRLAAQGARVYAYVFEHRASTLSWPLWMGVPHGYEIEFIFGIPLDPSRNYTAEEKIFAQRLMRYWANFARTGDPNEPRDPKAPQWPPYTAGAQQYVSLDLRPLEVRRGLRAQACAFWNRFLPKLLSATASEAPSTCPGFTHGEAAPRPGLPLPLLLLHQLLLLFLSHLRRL

Structure (SMILES): COP(=S)(OC)Oc1ccc([N+](=O)[O-])c(C)c1 [fenitrothion]
- Reported erythrocyte AChE activity/inhibition (0.042 mg/kg BW single oral, 3 volunteers, ref Nosáľ and Hladká. 1968): No significant
- Reported concomitant effects (signs and symptoms) (0.06 mg/kg BW single oral, 3 male volunteers, ref Meaklim et al. 2003): No significant symptoms
- Reported erythrocyte AChE activity/inhibition (0.083 mg/kg BW single oral, 9 volunteers, ref Nosáľ and Hladká. 1968): No significant
- Reported erythrocyte AChE activity/inhibition (0.09 mg/kg BW, first dose of repeated exposure study, 8 male and 4 female volunteers, ref Meaklim et al. 2003): No significant erythrocyte AChE
- Reported erythrocyte AChE activity/inhibition (0.17 mg/kg BW single oral, 5 volunteers, ref Nosáľ and Hladká. 1968): No significant erythrocyte AChE
- Reported concomitant effects (signs and symptoms) (0.18 mg/kg BW single oral, 3 male volunteers, ref Meaklim et al. 2003): No significant symptoms
- Reported erythrocyte AChE activity/inhibition (0.18 mg/kg BW, first dose of repeated exposure study, 8 male and 4 female volunteers, ref Meaklim et al. 2003): No significant erythrocyte AChE
- Reported erythrocyte AChE activity/inhibition (0.25 mg/kg BW single oral, 2 volunteers, ref Nosáľ and Hladká. 1968): No significant erythrocyte AChE
- Reported erythrocyte AChE activity/inhibition (0.33 mg/kg BW single oral, 5 volunteers, ref Nosáľ and Hladká. 1968): No significant erythrocyte AChE
- Reported concomitant effects (signs and symptoms) (0.36 mg/kg BW single oral, 3 male volunteers, ref Meaklim et al. 2003): No symptoms or adverse effects
- Reported concomitant effects (signs and symptoms) (36 mg/kg BW (2.5 g) acute oral, person, ref Kojima et al. 1989): Toxic symptoms occurred
- Reported concomitant effects (signs and symptoms) (71 mg/kg BW (5 g) acute oral, person, ref Yoshida and Kuroki. 2010 (original data of Koyama et al. 2006)): Toxic symptoms occurred
- Reported concomitant effects (signs and symptoms) (143 mg/kg BW (10 g) acute oral, person, ref Yoshida and Kuroki. 2010 (original data of Koyama et al. 2006)): Toxic symptoms occurred
- Reported concomitant effects (signs and symptoms) (214 mg/kg BW (15 g) acute oral, person five, ref Yoshida and Kuroki. 2010 (original data of Koyama et al. 2006)): Toxic symptoms occurred
- Reported concomitant effects (signs and symptoms) (214 mg/kg BW (15 g) acute oral, person three, ref Yoshida and Kuroki. 2010 (original data of Koyama et al. 2006)): Toxic symptoms occurred
- Reported concomitant effects (signs and symptoms) (286 mg/kg BW (20 g) acute oral, person, ref Sakamoto et al. 1984): Toxic symptoms occurred
- Reported concomitant effects (signs and symptoms) (357 mg/kg BW (25 g) acute oral, person eleven, ref Yoshida and Kuroki. 2010 (original data of Koyama et al. 2006)): Toxic symptoms occurred
- Reported concomitant effects (signs and symptoms) (357 mg/kg BW (25 g) acute oral, person twelve, ref Yoshida and Kuroki. 2010 (original data of Koyama et al. 2006)): Toxic symptoms occurred
- Reported concomitant effects (signs and symptoms) (357 mg/kg BW (25 g) acute oral, person, ref Martinez-Chuecos et al. 1992): Toxic symptoms occurred
- Reported concomitant effects (signs and symptoms) (429 mg/kg BW (30 g) acute oral, person, ref Yoshida et al. 1987): Toxic symptoms occurred
- Reported concomitant effects (signs and symptoms) (429 mg/kg BW (30.0 ± 19.7 g) acute oral, 4 males and 6 females, ref Inoue et al. 2008): Toxic symptoms occurred
- Reported concomitant effects (signs and symptoms) (500 mg/kg BW (35 g) acute oral, person fourteen, ref Yoshida and Kuroki. 2010 (original data of Koyama et al. 2006)): Toxic symptoms occurred
- Reported concomitant effects (signs and symptoms) (500 mg/kg BW (35 g) acute oral, person two, ref Yoshida and Kuroki. 2010 (original data of Koyama et al. 2006)): Toxic symptoms occurred
- Reported concomitant effects (signs and symptoms) (536 mg/kg BW (37.5 g) acute oral, person, ref Yoshida and Kuroki. 2010 (original data of Koyama et al. 2006)): Toxic symptoms occurred
- Reported concomitant effects (signs and symptoms) (571 mg/kg BW (40 g) acute oral, person, ref Park and Choi. 2017): Toxic symptoms occurred
- Reported concomitant effects (signs and symptoms) (714 mg/kg BW (50 g) acute oral, person eight, ref Yoshida and Kuroki. 2010 (original data of Koyama et al. 2006)): Toxic symptoms occurred
- Reported concomitant effects (signs and symptoms) (714 mg/kg BW (50 g) acute oral, person four, ref Yoshida and Kuroki. 2010 (original data of Koyama et al. 2006)): Toxic symptoms occurred
- Reported concomitant effects (signs and symptoms) (714 mg/kg BW (50 g) acute oral, person nine, ref Yoshida and Kuroki. 2010 (original data of Koyama et al. 2006)): Toxic symptoms occurred
- Reported concomitant effects (signs and symptoms) (714 mg/kg BW (50 g) acute oral, person one, ref Yoshida and Kuroki. 2010 (original data of Koyama et al. 2006)): Toxic symptoms occurred
- Reported concomitant effects (signs and symptoms) (714 mg/kg BW (50 g) acute oral, person ten, ref Yoshida and Kuroki. 2010 (original data of Koyama et al. 2006)): Toxic symptoms occurred
- Reported concomitant effects (signs and symptoms) (714 mg/kg BW (50 g) acute oral, person thirteen, ref Yoshida and Kuroki. 2010 (original data of Koyama et al. 2006)): Toxic symptoms occurred
- Reported concomitant effects (signs and symptoms) [1]: toxic symptoms occurred
- Reported erythrocyte AChE activity/inhibition [1]: Significantly decreased
- Reported concomitant effects (signs and symptoms) (1786 mg/kg BW (125.0 ± 35.4 g) acute oral, one male and one female, ref Inoue et al. 2008): Toxic symptoms occurred
- reported or expected adverse health outcome (single oral 0.042 mg/kg BW, 0.042 mg/kg): negative
- reported or expected adverse health outcome (single oral 0.042 mg/kg BW, listed as Fenitrothion, 0.042 mg/kg): No
- reported or expected adverse health outcome (single oral 0.06 mg/kg BW, 0.06 mg/kg): negative
- reported or expected adverse health outcome (single oral 0.06 mg/kg BW, listed as Fenitrothion, 0.06 mg/kg): No
- reported or expected adverse health outcome (single oral 0.083 mg/kg BW, 0.083 mg/kg): negative
- reported or expected adverse health outcome (single oral 0.083 mg/kg BW, listed as Fenitrothion, 0.083 mg/kg): No
- reported or expected adverse health outcome (single oral 0.09 mg/kg BW, 0.09 mg/kg): negative
- reported or expected adverse health outcome (single oral 0.09 mg/kg BW, listed as Fenitrothion, 0.09 mg/kg): No
- reported or expected adverse health outcome (single oral 0.17 mg/kg BW, 0.17 mg/kg): negative
- reported or expected adverse health outcome (single oral 0.17 mg/kg BW, listed as Fenitrothion, 0.17 mg/kg): No
- reported or expected adverse health outcome (single oral 0.18 mg/kg BW, 0.18 mg/kg): negative
- reported or expected adverse health outcome (single oral 0.18 mg/kg BW, listed as Fenitrothion, 0.18 mg/kg): No
- reported or expected adverse health outcome (single oral 0.25 mg/kg BW, 0.25 mg/kg): negative
- reported or expected adverse health outcome (single oral 0.25 mg/kg BW, listed as Fenitrothion, 0.25 mg/kg): No
- reported or expected adverse health outcome (single oral 0.33 mg/kg BW, 0.33 mg/kg): negative
- reported or expected adverse health outcome (single oral 0.33 mg/kg BW, listed as Fenitrothion, 0.33 mg/kg): No
- reported or expected adverse health outcome (single oral 0.36 mg/kg BW, 0.36 mg/kg): negative
- reported or expected adverse health outcome (single oral 0.36 mg/kg BW, listed as Fenitrothion, 0.36 mg/kg): No
- reported or expected adverse health outcome (single oral 36 mg/kg BW, 36 mg/kg): positive
- reported or expected adverse health outcome (single oral 36 mg/kg BW, listed as Fenitrothion, 36 mg/kg): Yes
- reported or expected adverse health outcome (single oral 71 mg/kg BW, 71 mg/kg): positive
- reported or expected adverse health outcome (single oral 71 mg/kg BW, listed as Fenitrothion, 71 mg/kg): Yes
- reported or expected adverse health outcome (single oral 143 mg/kg BW, 143 mg/kg): positive
